PubChem BioAssay (NCI)
Values joined by “and” are separate entries in the source; they are usually repeats but may differ in a detail not shown here. Equal values may be shown once.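 Interpolation was linear, between the two tested concentrations surrounding the appropriate level; five concentrations were tested over 48 hours in 96-well plates. TGI marks complete inhibition of growth.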

How the values were obtained:
Experiment in all cases: DTP human tumour cell line panel, 48 h
CAKI-1 renal = test system: CAKI-1 renal
SK-MEL-2 melanoma = test system: SK-MEL-2 melanoma
ACHN renal = test system: ACHN renal
SF-268 CNS = test system: SF-268 CNS
SF-295 CNS = test system: SF-295 CNS
OVCAR-5 ovarian = test system: OVCAR-5 ovarian
HT29 colon = test system: HT29 colon
EKVX NSCLC = test system: EKVX NSCLC
RXF 393 renal = test system: RXF 393 renal
HS 578T breast = test system: HS 578T breast
MCF7 breast = test system: MCF7 breast
IGROV1 ovarian = test system: IGROV1 ovarian
NCI-H23 lung = test system: NCI-H23 lung
T-47D breast = test system: T-47D breast
SR leukemia = test system: SR leukemia

SMILES | TGI (CAKI-1 renal) | TGI (SK-MEL-2 melanoma) | TGI (ACHN renal) | TGI (SF-268 CNS) | TGI (SF-295 CNS) | TGI (OVCAR-5 ovarian) | TGI (HT29 colon) | TGI (EKVX NSCLC) | TGI (RXF 393 renal) | TGI (HS 578T breast) | TGI (MCF7 breast) | TGI (IGROV1 ovarian) | TGI (NCI-H23 lung) | TGI (T-47D breast) | TGI (SR leukemia)
CN(CCc1ccc(Br)cc1)CCN1CCCCC1 | > 100 µM | 64.3 µM | > 100 µM | > 100 µM | 61.4 µM | > 100 µM | 38.8 µM | > 100 µM | > 100 µM | 52.6 µM | 54.4 µM | > 100 µM | > 100 µM | > 100 µM | –
COC(=O)c1cc(Br)c(C(=O)C(Cl)(Cl)Cl)[nH]1 | > 100 µM | > 100 µM | > 100 µM | > 100 µM | > 100 µM | > 100 µM | > 100 µM | > 100 µM | > 100 µM | – | – | > 100 µM | > 100 µM | > 100 µM | –
Cc1cc(Cl)nc(NC(=O)CSc2ccc(Cl)cc2)n1 | – | > 100 µM | > 100 µM | > 100 µM | > 100 µM | > 100 µM | > 100 µM | > 100 µM | > 100 µM | > 100 µM | – | > 100 µM | > 100 µM | > 100 µM | > 100 µM
CN(C(=O)OC(C)(C)C)[C@H]1CCCC[C@H]1N1CCCC1 | > 100 µM | > 100 µM | > 100 µM | > 100 µM | > 100 µM | > 100 µM | > 100 µM | > 100 µM | – | > 100 µM | > 100 µM | > 100 µM | > 100 µM | > 100 µM | > 100 µM
COC(=O)CCc1ccc2c(c1)CCC2 | > 100 µM | > 100 µM | > 100 µM | > 100 µM | > 100 µM | > 100 µM | > 100 µM | – | – | > 100 µM | > 100 µM | > 100 µM | > 100 µM | > 100 µM | > 100 µM
CCOC(=O)c1sc2nc(SC)nc(Nc3ccc4c(c3)OCCCO4)c2c1N | > 100 µM | > 100 µM | > 100 µM | > 100 µM | 53.9 µM | > 100 µM | > 100 µM | > 100 µM | 41.7 µM | – | > 100 µM | > 100 µM | > 100 µM | > 100 µM | > 100 µM
CC(=O)OCc1nc(C#N)c(N)o1 | > 100 µM | > 100 µM | > 100 µM | > 100 µM | > 100 µM | > 100 µM | > 100 µM | > 100 µM | > 100 µM | > 100 µM | > 100 µM | > 100 µM | > 100 µM | – | > 100 µM
CCCCCCCCCCCCCCCCOP(=O)(O)OP(=O)(O)OCC1OC(n2ccc(N)nc2=O)CC1O (stereo not given) | > 100 µM | > 100 µM | > 100 µM | > 100 µM | > 100 µM | > 100 µM | > 100 µM | > 100 µM | > 100 µM | > 100 µM | > 100 µM | > 100 µM | > 100 µM | > 100 µM | –
Cc1c(O)c(OC2OC(CO)C(O)C(O)C2O)cc2c1CC[C@@H]1C2(C)C(=O)C[C@]2(C)[C@@H]([C@@](C)(O)C(O)/C=C/C(C)(C)O)[C@H](O)C[C@@]12C (stereo not given in full) | > 100 µM | > 100 µM | > 100 µM | > 100 µM | > 100 µM | > 100 µM | > 100 µM | > 100 µM | > 100 µM | – | > 100 µM | > 100 µM | > 100 µM | > 100 µM | > 100 µM
Cc1[nH]c2c(C)ccc(C)c2c1CC(=O)O | > 100 µM | 81.9 µM | > 100 µM | > 100 µM | > 100 µM | > 100 µM | > 100 µM | > 100 µM | > 100 µM | 60.4 µM | > 100 µM | > 100 µM | > 100 µM | > 100 µM | –
Cc1nnc(Nc2ccc(Cl)cc2)o1 | > 10 µM | > 10 µM | > 10 µM | > 10 µM | > 10 µM | – | > 10 µM | > 10 µM | > 10 µM | > 10 µM | > 10 µM | > 10 µM | > 10 µM | > 10 µM | –
COc1ccc(NC(=O)C(=O)C(CC2C(=O)NC(=S)NC2=O)C(=O)c2ccc3ccccc3c2)c([N+](=O)[O-])c1 (stereo not given) | > 100 µM | > 100 µM | > 100 µM | > 100 µM | > 100 µM | > 100 µM | > 100 µM | > 100 µM | – | > 100 µM | > 100 µM | > 100 µM | > 100 µM | > 100 µM | –
COC(=O)[C@@H]1O[C@]12C(CO[Si](C)(C)C(C)(C)C)OC(n1ccc(=O)[nH]c1=O)C2O[Si](C)(C)C(C)(C)C (stereo not given in full) | 72 µM | 33.2 µM | 54.1 µM | > 100 µM | 57.7 µM | 77.5 µM | 43.4 µM | 62.6 µM | – | – | 37.2 µM | 46.1 µM | 54.5 µM | – | –
CC(C)[Si](OC12CCC(CC1O)CC2C(=O)O)(C(C)C)C(C)C (stereo not given) | 36.4 µM | 27.7 µM | 29.1 µM | 27.9 µM | 29.2 µM | 30 µM | 26.8 µM | – | – | – | 31.7 µM | – | 34.7 µM | 37.5 µM | > 100 µM
CC(=O)O[C@H]1C(=O)[C@@]2(C)C(C(OC(=O)c3ccccc3)[C@]3(O)CC(OC(=O)C(O)C(NC(=O)c4ccccc4)c4ccc(F)cc4)C(C)=C1C3(C)C)[C@]1(OC(C)=O)CO[C@@H]1C[C@@H]2O (stereo not given in full) | > 10 µM | 3.27 µM | > 10 µM | > 10 µM | 1.42 µM | > 7.89 µM | > 3.4 µM | > 10 µM | 0.0187 µM | – | > 10 µM | > 10 µM | > 10 µM | > 10 µM | > 3.82 µM
CCC1(O)CC(OC2CC(N(C)C)C(OC3CC(O)C(OC4OC(C)C(=O)C=C4N)C(C)O3)C(C)O2)c2c(O)c3c(c(O)c2C1C(=O)OC)C(=O)c1cccc(O)c1C3=O (stereo not given) | – | 0.0272 µM | – | 0.299 µM | – | 0.16 µM and 0.966 µM | 0.215 µM | 0.351 µM and 0.0968 µM | – | 0.366 µM and 1.47 µM | 1.4 µM | – | 0.036 µM | – | –
COC(=O)c1ccccc1C1CN=NC12Cc1c(C)cc(C)cc1C2=O (stereo not given) | > 100 µM | > 100 µM | > 100 µM | > 100 µM | > 100 µM | > 100 µM | > 100 µM | > 100 µM | > 100 µM | > 100 µM | > 100 µM | > 100 µM | > 100 µM | > 100 µM | –
